In patent US20240024520A1, “AUTONOMOUS KNOB DOMAIN PEPTIDES” (UCB BIOPHARMA SRL, priority 2020, published 2024):
Where two headings read alike, the source gives them in different places. Bridge positions count the residues as written; N and C are the ends. Ends that are not written are not given here. Peptide text beside a SMILES is read from it. * marks the point of attachment. Palmitoyl = CCCCCCCCCCCCCCCC(=O)*

Legend:
[1] = system: Classical pathway C5b deposition; assay: Classical pathway C5b (neo-epitope) deposition ELISA, SVAR kit; type: biochemical, human; details: chemFE peptides, Example 10; result in words
Source text: (§1) To elucidate the functional consequences of the knob domain peptides binding to human C5, we performed complement activation assays using the SVAR complement activation ELISA which measured CP (Classical Pathway) and AP (Alternative Pathway) activation in human serum, through formation of the C5b neo-epitope. We also developed orthogonal ELISA assays which measured total complement and AP specific mediated C3b and MAC (Membrane Attack Complex) deposition. For all activation conditions, we also tracked C5a release via ELISA.
(§2) For the C5b ELISA, assays were run using the CP and AP Complement functional ELISA kits (SVAR), as per the manufacturer's protocol. For sample preparation: serum was diluted as per the respective protocol for the CP and AP assays. Titrations of peptides were prepared and allowed to incubate for 15 minutes at room temperature, prior to plating.
(§3) Functional activity of chemically derived knob domain peptides was confirmed in a complement activation ELISAs which measured inhibition of C5b neoepitope deposition.
(§4) Finally, we tested our constructs in AP and CP complement activation ELISAs, which measured C5b neoepitope deposition.
(§5) Complement ELISA: assays were run using the CP and AP Complement functional ELISA kits (SVAR, COMPL 300 RUO), as per the manufacturer's protocol. For sample preparation, serum was diluted as per the respective protocol for the CP and AP assays; serial dilutions of peptides were prepared and allowed to incubate with serum for 15 minutes at room temperature, prior to plating.

[2] = system: Alternative pathway C5b deposition; assay: Alternative pathway C5b (neo-epitope) deposition ELISA, SVAR kit; type: biochemical, human; details: chemFE peptides, Example 10; result in words
Source text: as §1, §2, §3, §4, §5

C5 = C5 (Homo sapiens, UniProt P01031); assay: Biacore multi-cycle kinetics on human C5; type: binding; details: for mean stoichiometric ratio: measured Rmax divided by theoretical Rmax; for binding to human C5: chemical knob domains and variants, result in words
Sequence of C5 (P01031 19-1676): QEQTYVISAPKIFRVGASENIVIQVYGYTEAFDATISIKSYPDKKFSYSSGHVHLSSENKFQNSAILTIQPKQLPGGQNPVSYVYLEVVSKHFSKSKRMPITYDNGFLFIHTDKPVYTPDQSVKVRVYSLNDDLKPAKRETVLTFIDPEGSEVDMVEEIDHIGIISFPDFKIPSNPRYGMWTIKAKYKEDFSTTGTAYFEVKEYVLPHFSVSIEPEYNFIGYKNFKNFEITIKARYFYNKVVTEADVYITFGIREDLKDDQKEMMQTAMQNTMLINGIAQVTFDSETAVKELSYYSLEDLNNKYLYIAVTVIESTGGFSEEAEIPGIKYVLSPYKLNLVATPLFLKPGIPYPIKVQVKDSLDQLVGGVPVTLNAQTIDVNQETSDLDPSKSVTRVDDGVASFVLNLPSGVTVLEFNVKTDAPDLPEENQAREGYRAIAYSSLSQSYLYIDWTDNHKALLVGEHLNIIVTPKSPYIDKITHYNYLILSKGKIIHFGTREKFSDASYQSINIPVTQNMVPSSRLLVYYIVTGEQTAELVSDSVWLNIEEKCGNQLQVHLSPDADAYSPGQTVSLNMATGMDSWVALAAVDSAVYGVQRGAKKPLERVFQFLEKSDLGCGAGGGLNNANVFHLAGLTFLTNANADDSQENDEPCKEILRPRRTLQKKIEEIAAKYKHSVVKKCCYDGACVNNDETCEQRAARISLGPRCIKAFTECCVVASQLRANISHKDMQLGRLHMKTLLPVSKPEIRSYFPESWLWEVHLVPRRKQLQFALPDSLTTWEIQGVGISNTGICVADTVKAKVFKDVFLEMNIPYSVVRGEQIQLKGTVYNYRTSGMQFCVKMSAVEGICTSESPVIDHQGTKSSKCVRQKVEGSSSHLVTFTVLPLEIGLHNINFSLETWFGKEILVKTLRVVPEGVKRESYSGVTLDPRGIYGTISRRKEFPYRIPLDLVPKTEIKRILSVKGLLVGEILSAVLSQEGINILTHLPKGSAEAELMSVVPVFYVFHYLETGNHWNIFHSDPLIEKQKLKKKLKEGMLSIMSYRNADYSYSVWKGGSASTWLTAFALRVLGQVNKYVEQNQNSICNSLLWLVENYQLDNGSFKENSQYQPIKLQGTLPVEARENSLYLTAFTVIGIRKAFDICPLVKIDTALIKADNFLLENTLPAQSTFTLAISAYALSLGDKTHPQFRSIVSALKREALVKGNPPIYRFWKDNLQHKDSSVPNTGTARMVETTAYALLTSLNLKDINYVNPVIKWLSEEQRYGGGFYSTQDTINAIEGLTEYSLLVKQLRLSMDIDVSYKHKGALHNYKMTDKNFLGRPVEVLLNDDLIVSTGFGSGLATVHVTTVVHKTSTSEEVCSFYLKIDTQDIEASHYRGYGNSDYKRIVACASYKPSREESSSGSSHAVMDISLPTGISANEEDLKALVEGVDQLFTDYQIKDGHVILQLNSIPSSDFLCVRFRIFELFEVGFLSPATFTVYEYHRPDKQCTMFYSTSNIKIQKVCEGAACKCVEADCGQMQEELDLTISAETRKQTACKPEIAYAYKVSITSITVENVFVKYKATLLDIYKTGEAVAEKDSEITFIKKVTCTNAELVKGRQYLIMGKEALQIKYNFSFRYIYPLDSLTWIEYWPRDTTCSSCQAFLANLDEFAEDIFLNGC
Description: Binding of knob domain peptides to human C5 was measured by SPR, using a multi-cycle kinetics method as follows:
(§6) Kinetics were measured using a Biacore 8K (GE Healthcare) with a CM5 chip, which was prepared as follows: EDC/NHS was mixed at 1:1 ratio (flow rate, 10 μL/min; contact time, 30 seconds), human C5 protein at 1 μg/mL in pH 4.5 sodium-acetate buffer, were injected over flow cell one only (flow rate, 10 μL/min; contact time, 60 seconds). Final immobilization levels in the range of 2000-3000 response units (RU) were obtained, to yield theoretical Rmax values of ˜50-60 RU. Serial dilutions of peptide were prepared in HBS-EP buffer and injected (flow rate, 30 μL/min; contact time, 240 seconds; dissociation time, 6000 seconds). After each injection, the surface was regenerated with two sequential injections of 2M MgCl2 (flow rate, […]; contact time, 30 seconds). Binding to the reference surface was subtracted, and the data were fitted to a single site binding model, using Biacore evaluation software.

[3] = system: antibody-sensitized sheep red blood cells; assay: Classical pathway haemolysis assay; type: cell-based; details: normal human sera; result in words
Description: (§7) Haemolysis assays: For AP, 50 μL of 24% normal human sera (Complement Technology), 50 of 20 mM MgEGTA (Complement Technology), and 48 μL of GVB0 buffer (0.1% gelatin, […], 145 mM NaCl, 0.025% NaN3, pH 7.3, Complement Technology) were aliquoted into a single well of a 96-well tissue culture plate (USA Scientific) then mixed with 2 μL of inhibitors serially diluted in DMSO. Following equilibration for 15 minutes at room temperature, 50 μL of rabbit erythrocytes (Complement Technology), at 2.5×10^7 per well, were added to the plates, which were then incubated at 37° C. for 30 minutes. Plates were centrifuged at 1,000×g for 3 min and 100 μL of supernatant was collected, transferred to another 96-well tissue culture treated plate, and absorbance was measured at 412 nm. For CP, […], 48 μL of GVB++ buffer (0.1% gelatin, 5 mM Veronal, 145 mM NaCl, 0.025% NaN3, pH 7.3 with 0.15 mM CaCl2 and 0.5 mM MgCl2, Complement Technology) and 2 μL of inhibitors serially diluted in DMSO were aliquoted into a single well and equilibrated as described. Next, 100 μL of antibody-sensitized sheep red blood cells (Complement Technology) at 5×10^7 per well were added to the plate, which was then incubated at 37° C. for 1 hour. Samples were subsequently processed as described.

rabbit erythrocytes = assay: Alternative pathway haemolysis assay; type: cell-based; details: normal human sera; result in words
Description: as §7

rat C5 protein = rat C5 protein (Rattus norvegicus, UniProt P08650); assay: Biacore kinetics on rat C5 (cross-reactivity); type: binding; details: SPR
Sequence of rat C5 protein (P08650 19-1681): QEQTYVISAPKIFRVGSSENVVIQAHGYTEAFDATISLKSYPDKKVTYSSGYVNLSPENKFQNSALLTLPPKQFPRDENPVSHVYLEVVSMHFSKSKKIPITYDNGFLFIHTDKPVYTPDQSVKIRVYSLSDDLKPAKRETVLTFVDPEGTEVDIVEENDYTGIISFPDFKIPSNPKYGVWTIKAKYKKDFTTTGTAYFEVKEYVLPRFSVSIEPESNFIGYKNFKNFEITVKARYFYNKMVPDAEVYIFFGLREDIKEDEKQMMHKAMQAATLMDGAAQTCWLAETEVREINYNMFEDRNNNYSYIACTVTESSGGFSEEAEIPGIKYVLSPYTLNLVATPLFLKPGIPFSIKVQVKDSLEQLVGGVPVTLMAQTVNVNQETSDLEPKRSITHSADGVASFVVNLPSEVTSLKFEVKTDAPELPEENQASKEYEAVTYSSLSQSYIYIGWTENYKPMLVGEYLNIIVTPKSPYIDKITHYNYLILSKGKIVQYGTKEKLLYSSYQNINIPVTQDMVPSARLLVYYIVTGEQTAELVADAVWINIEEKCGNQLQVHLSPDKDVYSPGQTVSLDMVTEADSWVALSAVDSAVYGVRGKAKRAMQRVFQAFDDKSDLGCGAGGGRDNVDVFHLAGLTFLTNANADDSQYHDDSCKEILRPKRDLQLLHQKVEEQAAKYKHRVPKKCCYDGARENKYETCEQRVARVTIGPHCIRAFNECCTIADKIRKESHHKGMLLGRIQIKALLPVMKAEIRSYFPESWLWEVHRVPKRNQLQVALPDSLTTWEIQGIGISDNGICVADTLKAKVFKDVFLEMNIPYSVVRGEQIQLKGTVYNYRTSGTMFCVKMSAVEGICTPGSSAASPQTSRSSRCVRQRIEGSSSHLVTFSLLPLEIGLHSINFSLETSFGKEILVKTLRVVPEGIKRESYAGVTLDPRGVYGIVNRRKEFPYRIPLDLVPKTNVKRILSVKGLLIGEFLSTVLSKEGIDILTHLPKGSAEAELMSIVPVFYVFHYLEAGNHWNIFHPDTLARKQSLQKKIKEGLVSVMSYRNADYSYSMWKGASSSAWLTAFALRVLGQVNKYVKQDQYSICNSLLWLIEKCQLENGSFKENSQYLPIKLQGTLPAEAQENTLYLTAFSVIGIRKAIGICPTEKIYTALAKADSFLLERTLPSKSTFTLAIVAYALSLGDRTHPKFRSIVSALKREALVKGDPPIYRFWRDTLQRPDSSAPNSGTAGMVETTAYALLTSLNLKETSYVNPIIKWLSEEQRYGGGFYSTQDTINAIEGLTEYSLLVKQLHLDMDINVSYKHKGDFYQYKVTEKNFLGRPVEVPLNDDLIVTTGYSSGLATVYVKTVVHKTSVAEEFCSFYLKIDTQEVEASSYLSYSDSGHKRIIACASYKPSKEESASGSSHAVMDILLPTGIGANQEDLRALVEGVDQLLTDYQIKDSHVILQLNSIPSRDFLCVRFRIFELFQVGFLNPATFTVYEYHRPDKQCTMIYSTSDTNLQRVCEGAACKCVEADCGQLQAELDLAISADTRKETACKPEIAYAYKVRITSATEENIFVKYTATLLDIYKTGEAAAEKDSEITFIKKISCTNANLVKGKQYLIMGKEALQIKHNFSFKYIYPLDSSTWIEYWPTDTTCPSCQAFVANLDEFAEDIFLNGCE
Description: as §6, with “rat” for “human”, “ug/mL” for “μg/mL”

[4] = In vivo pharmacokinetics after intravenous bolus; details: rat, plasma; 1 mg/kg intravenous; male Sprague-Dawley rats; read-out: plasma clearance [C1p]
Description: Plasma pharmacokinetics was studied for each peptide in male Sprague-Dawley rats of a body weight between 324 and 425 g. Drug was administered intravenously via the tail vein. […] Blood samples were taken at 7 minutes, 15 minutes, 30 minutes, followed by 1, 2, 4, 8 and 24 hours. Blood was collected into Li Heparin tubes and spun to prepare plasma samples for bioanalysis. Bioanalytical data was analysed on an individual animal basis using Pharsight Phoenix 64 Build 8.1. Non-compartmental analysis was conducted and mean pharmacokinetic parameters for each drug calculated.

[5] = relative to unmodified peptide
[6] = read-out: mean Koff, multi-cycle kinetics, n = 3 experiments
[7] = read-out: mean Kon, multi-cycle kinetics, n = 3 experiments

| Compound | inhibition of CP, C5b deposition [1] | inhibition of AP, C5b deposition [2] | mean stoichiometric ratio (C5; n = 3 experiments) | koff (C5; [6]) | kon (C5; [7]) | inhibition of haemolysis, CP [3] | inhibition of haemolysis, AP (rabbit erythrocytes) | cross reactivity with rat C5 protein (rat C5 protein) | binding to human C5 (C5) | further results |
| --- | --- | --- | --- | --- | --- | --- | --- | --- | --- | --- |
| GCPPGYKSGVDCSPGSECKWGCYAVDGRRYGGYGADSGVGS-OH (disulfide 2-18, 12-22) [K57chemFE] | potent and fully efficacious inhibitor | potent and fully efficacious inhibitor | 0.65 | 0.000579 s⁻¹ | 260000 M⁻¹ s⁻¹ | potent and fully efficacious inhibitor | potent and fully efficacious inhibitor | specific for human C5 |  |  |
| VCPDGFNWGYGCAAGSSRFCTRHDWCCYDERADSHTYGFCTGNRV-OH (disulfide 2-26, 12-40, 20-27) [K8chemFE] | partial inhibitor | partial inhibitor | 0.25 | 0.000385 s⁻¹ | 70500 M⁻¹ s⁻¹ |  |  | tightly bound |  | cross reactivity with rat C5 protein (rat C5 protein; listed as K8chem): cross reactive |
| CC[C@H](C)[C@@H]1NC(=O)[C@H](C)NC(=O)[C@H](C(C)C)NC(=O)CNC(=O)[C@@H]2CSSC[C@@H](C(=O)NCC(=O)N[C@@H](Cc3c[nH]cn3)C(=O)N[C@@H](Cc3ccccc3)C(=O)N[C@@H](CC(C)C)C(=O)N[C@@H](CC(N)=O)C(=O)N[C@@H](CO)C(=O)NCC(=O)N3CCC[C@H]3C(=O)N[C@@H](CC(N)=O)C(=O)N[C@H](C(=O)N[C@@H](CO)C(=O)N3CCC[C@H]3C(=O)N[C@@H](Cc3ccc(O)cc3)C(=O)N[C@H](C(=O)N[C@@H](CO)C(=O)N[C@H](C(=O)O)[C@@H](C)O)C(C)C)[C@@H](C)CC)NC(=O)CNC(=O)[C@H](Cc3c[nH]c4ccccc34)NC(=O)[C@H](CCCNC(=N)N)NC(=O)CNC(=O)[C@H](CSSC[C@H](NC(=O)[C@@H](N)[C@@H](C)O)C(=O)N3CCC[C@H]3C(=O)N[C@@H](CCC(=O)O)C(=O)NCC(=O)N[C@@H](Cc3c[nH]c4ccccc34)C(=O)N[C@@H](CO)C(=O)N[C@@H](CCC(=O)O)C(=O)N2)NC(=O)[C@H](CCC(=O)O)NC(=O)[C@H](Cc2ccc(O)cc2)NC(=O)CNC(=O)[C@H](Cc2ccc(O)cc2)NC1=O [K92chemFE] (H-TCPEGWSECGVAIYGYECGRWGCGHFLNSGPNISPYVST-OH; disulfide 2-18, 9-23) | modest, dose dependent enhancement | partially inhibited | 0.40 |  |  |  | active solely in the AP-driven haemolysis assay |  |  | koff (C5; multi-cycle kinetics, n = 3 experiments, read-out: mean Koff): 0.000101 s⁻¹; kon (C5; multi-cycle kinetics, n = 3 experiments, read-out: mean Kon): 283000 M⁻¹ s⁻¹ |
| CSCC[C@@H]1NC(=O)[C@@H]2CCCN2C(=O)[C@@H](NC(=O)[C@@H]2CSSC[C@H](NC(=O)[C@@H](N)CO)C(=O)N3CCC[C@H]3C(=O)N[C@@H](CC(=O)O)C(=O)NCC(=O)N[C@@H](Cc3ccccc3)C(=O)N[C@@H](CO)C(=O)N[C@@H](Cc3ccc(O)cc3)C(=O)N[C@@H](CCCNC(=N)N)C(=O)N[C@@H](CO)C(=O)N[C@@H](Cc3c[nH]c4ccccc34)C(=O)N[C@@H](CC(=O)O)C(=O)N[C@@H](CC(=O)O)C(=O)N[C@@H](Cc3ccccc3)C(=O)N2)CSSC[C@@H](C(=O)N[C@@H](CC(C)C)C(=O)N[C@@H](C)C(=O)N2CCC[C@H]2C(=O)N[C@@H](CCCNC(=N)N)C(=O)N[C@@H](CC(N)=O)C(=O)O)NC(=O)[C@H](CCCNC(=N)N)NC(=O)CNC(=O)[C@H](C(C)C)NC1=O [K149chemFE] (H-SCPDGFSYRSWDDFCCPMVGRCLAPRN-OH; disulfide 2-15, 16-22 (inferred); N-terminus assumed) | non-functional, silent binder | non-functional, silent binder | 0.85 |  |  |  |  |  | equal affinity | binding to C5 (C5; after reduction and capping of cysteines with iodoacetamide (loss of disulphide bonds)): entirely abrogated binding; Kd (C5; multi-cycle kinetics, n = 3 experiments, read-out: mean KD): 5.57 nM |
| K8 chemFE cyclic: cyclic peptide from head-to-tail cyclisation of the K8chemFE knob domain (cyclo(VCPDGFNWGYGCAAGSSRFCTRHDWCCYDERADSHTYGFCTGNRV); also: disulphides formed by free energy method, pairing not given here) |  |  |  |  |  | functionally active complement inhibitor | functionally active complement inhibitor |  | bound human C5 |  |
| Palmitoyl-GCPPGYKSGVDCSPGSECKWGCYAVDGRRYGGYGADSGVGS-OH (disulfide 2-18, 12-22) [K57 chemFE-Palmitoyl] |  |  |  |  |  |  |  |  | unaffected | clearance [4]: 0.8 mL/min/kg; solubility [5]: reduced solubility |
